Experimental data published in PMC9774391 (ACS Omega, 2022).

What was measured:
Conditions in all cases: for inhibition at 1000 µM: 10^–3 M; for inhibition at 100 µM: 10^–4 M
MAO-A = target: T1, MAO-A (Homo sapiens, UniProt P21397); experiment: In vitro MAO-A inhibition assay (fluorometric); format: biochemical
T1 sequence (P21397 1-527): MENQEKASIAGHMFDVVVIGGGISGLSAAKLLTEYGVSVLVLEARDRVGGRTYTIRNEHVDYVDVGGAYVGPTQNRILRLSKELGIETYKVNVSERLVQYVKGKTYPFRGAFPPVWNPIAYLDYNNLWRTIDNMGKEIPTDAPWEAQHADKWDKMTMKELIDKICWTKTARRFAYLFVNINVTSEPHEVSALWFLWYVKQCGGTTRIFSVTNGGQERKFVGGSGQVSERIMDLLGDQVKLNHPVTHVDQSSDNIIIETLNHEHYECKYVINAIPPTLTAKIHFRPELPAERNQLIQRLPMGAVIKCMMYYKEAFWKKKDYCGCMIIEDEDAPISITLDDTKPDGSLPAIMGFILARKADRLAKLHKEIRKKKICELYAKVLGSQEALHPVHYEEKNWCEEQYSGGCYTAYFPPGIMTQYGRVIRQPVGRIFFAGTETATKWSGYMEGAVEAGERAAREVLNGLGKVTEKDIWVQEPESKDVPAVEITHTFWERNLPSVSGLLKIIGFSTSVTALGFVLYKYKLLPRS

MAO-B = target: T2, MAO-B (Homo sapiens, UniProt P27338); experiment: In vitro MAO-B inhibition assay (fluorometric); format: biochemical
T2 sequence (P27338 1-520): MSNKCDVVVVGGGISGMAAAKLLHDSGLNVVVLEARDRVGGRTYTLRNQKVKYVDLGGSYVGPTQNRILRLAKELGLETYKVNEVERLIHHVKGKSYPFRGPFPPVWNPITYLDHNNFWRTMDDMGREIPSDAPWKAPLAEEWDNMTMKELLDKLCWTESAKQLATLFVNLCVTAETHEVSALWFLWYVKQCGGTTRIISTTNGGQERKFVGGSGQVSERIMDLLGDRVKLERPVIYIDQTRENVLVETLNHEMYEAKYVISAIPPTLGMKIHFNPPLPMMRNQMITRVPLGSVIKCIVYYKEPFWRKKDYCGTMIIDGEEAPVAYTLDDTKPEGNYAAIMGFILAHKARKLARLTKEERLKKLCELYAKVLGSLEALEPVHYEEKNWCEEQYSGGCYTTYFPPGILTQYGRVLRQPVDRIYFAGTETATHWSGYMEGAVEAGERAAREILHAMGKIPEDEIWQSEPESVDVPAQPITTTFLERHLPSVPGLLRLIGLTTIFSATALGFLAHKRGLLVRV

BChE = BChE (Homo sapiens, UniProt P06276); experiment: biochemical
Chain of BChE (P06276 29-602): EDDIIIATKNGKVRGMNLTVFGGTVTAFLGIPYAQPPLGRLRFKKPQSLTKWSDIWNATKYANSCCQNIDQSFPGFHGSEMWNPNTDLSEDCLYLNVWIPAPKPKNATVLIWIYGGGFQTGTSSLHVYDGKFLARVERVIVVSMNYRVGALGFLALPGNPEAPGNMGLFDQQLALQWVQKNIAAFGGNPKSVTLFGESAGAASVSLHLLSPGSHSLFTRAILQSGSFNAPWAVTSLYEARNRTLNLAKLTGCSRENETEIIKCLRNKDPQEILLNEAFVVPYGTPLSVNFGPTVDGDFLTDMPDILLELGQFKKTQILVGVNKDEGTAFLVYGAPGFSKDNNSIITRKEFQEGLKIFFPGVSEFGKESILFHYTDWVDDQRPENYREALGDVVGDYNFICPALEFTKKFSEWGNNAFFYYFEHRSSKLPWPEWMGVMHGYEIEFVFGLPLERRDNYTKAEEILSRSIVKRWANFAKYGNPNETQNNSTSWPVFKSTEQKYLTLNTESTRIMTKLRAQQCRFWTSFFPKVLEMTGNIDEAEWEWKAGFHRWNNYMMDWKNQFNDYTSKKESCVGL
Protocol: (§1) According to the modified Ellman approach outlined in our team’s earlier work, the AChE and BChE inhibitory activities of the obtained compounds were evaluated.[18]−[21]

AChE = AChE (Homo sapiens, UniProt P22303); experiment: biochemical
Chain of AChE (P22303 32-614): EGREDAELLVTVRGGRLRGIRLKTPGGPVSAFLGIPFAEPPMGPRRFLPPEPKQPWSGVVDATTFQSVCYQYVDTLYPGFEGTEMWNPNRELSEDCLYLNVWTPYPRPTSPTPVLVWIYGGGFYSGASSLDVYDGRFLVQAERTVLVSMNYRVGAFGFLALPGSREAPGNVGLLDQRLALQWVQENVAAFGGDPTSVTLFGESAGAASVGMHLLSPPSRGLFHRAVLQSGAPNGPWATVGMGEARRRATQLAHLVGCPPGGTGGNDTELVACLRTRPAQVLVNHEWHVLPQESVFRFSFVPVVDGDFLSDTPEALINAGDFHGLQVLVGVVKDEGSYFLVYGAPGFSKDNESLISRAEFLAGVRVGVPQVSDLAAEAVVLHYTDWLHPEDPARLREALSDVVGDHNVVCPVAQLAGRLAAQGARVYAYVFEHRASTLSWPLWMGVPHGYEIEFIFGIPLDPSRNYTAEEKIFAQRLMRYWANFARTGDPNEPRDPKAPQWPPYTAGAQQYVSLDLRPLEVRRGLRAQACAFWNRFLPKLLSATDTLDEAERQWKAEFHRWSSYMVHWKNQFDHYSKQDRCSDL
Protocol: as §1

Compound	inhibition at 1000 µM (MAO-A)	inhibition at 100 µM (MAO-A)	inhibition at 1000 µM (MAO-B)	inhibition at 100 µM (MAO-B)	inhibition at 1000 µM (BChE)	inhibition at 100 µM (BChE)	inhibition at 1000 µM (AChE)	inhibition at 100 µM (AChE)
C#CCN1CCN(CC(=O)Nc2ccc(/C=C3\Cc4ccc(OC)cc4C3=O)cc2)CC1 [D11]	77 ± 1.59%	25.5 ± 0.52%	79.6 ± 1.13%	35.6 ± 0.488%	91.7 ± 1.21%	33.9 ± 0.569%	66.6 ± 0.985%	49.9 ± 0.809%
COc1ccc2c(c1)C/C(=C\c1ccc(NC(=O)CN3CCN(C)CC3)cc1)C2=O [D1]	59 ± 0.598%	21.4 ± 0.424%	65.12 ± 0.623%	38.7 ± 0.512%	94.6 ± 0.972%	32.8 ± 0.455%	83.2 ± 1.09%	47.3 ± 0.887%
C#CCN1CCN(CC(=O)Nc2ccc(/C=C3\Cc4cc(OC)c(OC)cc4C3=O)cc2)CC1 [D12]	95.76 ± 0.49%	45.1 ± 0.466%	96.2 ± 1.34%	49 ± 0.623%	98.4 ± 1.79%	48.8 ± 0.529%	96.5 ± 2.7%	49.7 ± 0.988%
COCCN1CCN(CC(=O)Nc2ccc(/C=C3\Cc4cc(OC)c(OC)cc4C3=O)cc2)CC1 [D15]	70.52 ± 0.536%	20.3 ± 0.412%	80.2 ± 1.46%	40.1 ± 0.508%	94.6 ± 1.6%	43.5 ± 0.966%	91.6 ± 2.56%	43.4 ± 0.877%
CCN1CCN(CC(=O)Nc2ccc(/C=C3\Cc4ccc(OC)cc4C3=O)cc2)CC1 [D5]	66.6 ± 1.49%	24.7 ± 0.514%	75.6 ± 1.08%	44.4 ± 0.627%	55.6 ± 549%	26.3 ± 0.211%	38.6 ± 0.518%	31.7 ± 0.499%
C#CCN1CCN(CC(=O)Nc2ccc(/C=C3\Cc4cc(OC)ccc4C3=O)cc2)CC1 [D10]	48.9 ± 0.966%	22.4 ± 0.662%	68.96 ± 0.578%	42.6 ± 0.652%	41.3 ± 0.755%	26.6 ± 1.35%	71.3 ± 1.01%	29.4 ± 0.587%
C=CCN1CCN(CC(=O)Nc2ccc(/C=C3\Cc4cc(OC)ccc4C3=O)cc2)CC1 [D7]	61.89 ± 0.618%	41.4 ± 0.808%	66.33 ± 0.557%	47.9 ± 0.952%	56.8 ± 0.971%	21.2 ± 0.378%	61.3 ± 1.01%	34.8 ± 0.472%
CCN1CCN(CC(=O)Nc2ccc(/C=C3\Cc4cc(OC)c(OC)cc4C3=O)cc2)CC1 [D6]	93.27 ± 0.309%	33.9 ± 1.13%	95.5 ± 1.25%	48.6 ± 1.13%	96.51 ± 0.317%	32.8 ± 0.908%	97.5 ± 2.23%	31.3 ± 0.697%
COc1cc2c(cc1OC)C(=O)/C(=C/c1ccc(NC(=O)CN3CCN(C)CC3)cc1)C2 [D3]	57.5 ± 0.875%	26.5 ± 0.365%	67.2 ± 0.751%	36.2 ± 0.452%	98.1 ± 1.57%	40.4 ± 0.548%	99.3 ± 2.34%	44.1 ± 0.906%
CCN(CC)CCN(CC)CC(=O)Nc1ccc(/C=C2\Cc3cc(OC)c(OC)cc3C2=O)cc1 [D42]	97.71 ± 0.411%	40.2 ± 0.736%	95.2 ± 1.62%	40.2 ± 0.824%	99.4 ± 1.29%	45.91 ± 0.206%	99.8 ± 2.01%	44.2 ± 0.71%
COc1ccc2c(c1)C/C(=C\c1ccc(NC(=O)CN3CCN(CCO)CC3)cc1)C2=O [D16]	65.8 ± 0.779%	22 ± 0.233%	75.6 ± 1.1%	42.9 ± 0.629%	87.63 ± 0.618%	23.6 ± 0.448%	88 ± 1.09%	42.6 ± 1.85%
COCCN1CCN(CC(=O)Nc2ccc(/C=C3\Cc4ccc(OC)cc4C3=O)cc2)CC1 [D14]	48.5 ± 0.749%	27.95 ± 0.243%	69 ± 0.847%	39.3 ± 0.652%	73.7 ± 1.51%	33 ± 0.721%	44.2 ± 0.999%	36.3 ± 0.664%
COc1ccc2c(c1)C(=O)/C(=C/c1ccc(NC(=O)CN3CCN(C)CC3)cc1)C2 [D2]	46.6 ± 0.853%	27.7 ± 0.909%	75.3 ± 0.987%	45.3 ± 0.859%	61.3 ± 0.18%	23.6 ± 0.226%	50.3 ± 0.731%	42.9 ± 0.601%
C=CCN1CCN(CC(=O)Nc2ccc(/C=C3\Cc4ccc(OC)cc4C3=O)cc2)CC1 [D8]	57.2 ± 1.34%	26.6 ± 0.455%	78.6 ± 1.15%	46.2 ± 0.547%	51 ± 0.667%	28.4 ± 0.409%	51 ± 0.995%	42 ± 0.661%
C#CCN(C)CC(=O)Nc1ccc(/C=C2\Cc3cc(OC)c(OC)cc3C2=O)cc1 [D33]	84.3 ± 1.29%	29.9 ± 0.552%	82.1 ± 1.19%	39.3 ± 0.665%	99 ± 1.75%	46.6 ± 0.845%	52.4 ± 1.24%	32 ± 0.462%
CCN1CCN(CC(=O)Nc2ccc(/C=C3\Cc4cc(OC)ccc4C3=O)cc2)CC1 [D4]	67.6 ± 1.06%	20.9 ± 0.455%	77.1 ± 1.06%	36.3 ± 0.496%	92.9 ± 2.41%	21.21 ± 0.11%	74.5 ± 1.02%	38.2 ± 0.479%
COc1ccc2c(c1)C(=O)/C(=C/c1ccc(NC(=O)CN3CCN(CCO)CC3)cc1)C2 [D17]	82.45 ± 0.529%	34.4 ± 0.508%	84.6 ± 1.04%	45.4 ± 0.669%	75.532 ± 0.061%	21.1 ± 0.804%	73.7 ± 1.06%	48.1 ± 0.669%
C=CCN1CCN(CC(=O)Nc2ccc(/C=C3\Cc4cc(OC)c(OC)cc4C3=O)cc2)CC1 [D9]	32.6 ± 0.389%	24.5 ± 0.459%	58.63 ± 0.523%	34.8 ± 0.384%	82.8 ± 1.03%	28.2 ± 0.679%	81.3 ± 1.13%	45.2 ± 0.996%
COc1cc2c(cc1OC)C(=O)/C(=C/c1ccc(NC(=O)CN3CCN(CCO)CC3)cc1)C2 [D18]	63.8 ± 0.683%	28.39 ± 0.097%	75.6 ± 1.2%	47.34 ± 0.457%	99.21 ± 0.887%	41.8 ± 0.766%	94.7 ± 1.97%	45.3 ± 1.01%
COCCN1CCN(CC(=O)Nc2ccc(/C=C3\Cc4cc(OC)ccc4C3=O)cc2)CC1 [D13]	82.7 ± 1.21%	35.5 ± 0.623%	84.6 ± 1.11%	44.6 ± 0.557%	90.1 ± 1.46%	23.9 ± 0.934%	71.2 ± 1.07%	43 ± 0.998%
